Measured values from article PMC7206119, “RIP1 inhibition blocks inflammatory diseases but not tumor growth or metastases” (Cell Death and Differentiation, 2019).

Key:
Test in all cases: biochemical
Design in all cases: DiscoverX kinase panel, active-site competition binding (KINOMEscan type), percent of control at one concentration
Settings in all cases: competition binding, percent of control
[1] = target: T1, ABL1(H396P)-nonphosphorylated (Homo sapiens, UniProt P00519, H396P)
T1 construct: nonphosphorylated

CSNK1D = CSNK1D (Homo sapiens, UniProt P48730)
FER = FER (Homo sapiens, UniProt P16591)
GAK = GAK (Homo sapiens, UniProt O14976)
HIPK1 = HIPK1 (Homo sapiens, UniProt Q86Z02)
IKK-beta = target: T2, IKK-beta (Homo sapiens, UniProt O14920)
T2 construct: gene IKBKB

[2] = target: T3, JAK1(JH1domain-catalytic) (Homo sapiens, UniProt P23458)
T3 construct: JH1domain-catalytic

JNK3 = target: T4, JNK3 (Homo sapiens, UniProt P53779)
T4 construct: gene MAPK10

LIMK2 = LIMK2 (Homo sapiens, UniProt P53671)
MLK1 = target: T5, MLK1 (Homo sapiens, UniProt P80192)
T5 construct: gene MAP3K9

MYLK4 = MYLK4 (Homo sapiens, UniProt Q86YV6)
PFCDPK1(P.falciparum) = target: T6, PFCDPK1(P.falciparum) (Plasmodium falciparum, UniProt P62344)
T6 construct: gene CDPK1

PIK3CA(M1043I) = PIK3CA(M1043I) (Homo sapiens, UniProt P42336, M1043I)
PKAC-alpha = target: T7, PKAC-alpha (Homo sapiens, UniProt P17612)
T7 construct: gene PRKACA

PLK1 = PLK1 (Homo sapiens, UniProt P53350)
PYK2 = target: T8, PYK2 (Homo sapiens, UniProt Q14289)
T8 construct: gene PTK2B

[3] = target: T9, RSK3(Kin.Dom.1-N-terminal) (Homo sapiens, UniProt Q15349)
T9 construct: gene RPS6KA2; Kin.Dom.1-N-terminal

STK16 = STK16 (Homo sapiens, UniProt O75716)
TEC = TEC (Homo sapiens, UniProt P42680)
YANK2 = target: T10, YANK2 (Homo sapiens, UniProt Q9NY57)
T10 construct: gene STK32B

p38-gamma = target: T11, p38-gamma (Homo sapiens, UniProt P53778)
T11 construct: gene MAPK12

PIK3CA(M1043I), sequence (P42336 whole entry M1043I): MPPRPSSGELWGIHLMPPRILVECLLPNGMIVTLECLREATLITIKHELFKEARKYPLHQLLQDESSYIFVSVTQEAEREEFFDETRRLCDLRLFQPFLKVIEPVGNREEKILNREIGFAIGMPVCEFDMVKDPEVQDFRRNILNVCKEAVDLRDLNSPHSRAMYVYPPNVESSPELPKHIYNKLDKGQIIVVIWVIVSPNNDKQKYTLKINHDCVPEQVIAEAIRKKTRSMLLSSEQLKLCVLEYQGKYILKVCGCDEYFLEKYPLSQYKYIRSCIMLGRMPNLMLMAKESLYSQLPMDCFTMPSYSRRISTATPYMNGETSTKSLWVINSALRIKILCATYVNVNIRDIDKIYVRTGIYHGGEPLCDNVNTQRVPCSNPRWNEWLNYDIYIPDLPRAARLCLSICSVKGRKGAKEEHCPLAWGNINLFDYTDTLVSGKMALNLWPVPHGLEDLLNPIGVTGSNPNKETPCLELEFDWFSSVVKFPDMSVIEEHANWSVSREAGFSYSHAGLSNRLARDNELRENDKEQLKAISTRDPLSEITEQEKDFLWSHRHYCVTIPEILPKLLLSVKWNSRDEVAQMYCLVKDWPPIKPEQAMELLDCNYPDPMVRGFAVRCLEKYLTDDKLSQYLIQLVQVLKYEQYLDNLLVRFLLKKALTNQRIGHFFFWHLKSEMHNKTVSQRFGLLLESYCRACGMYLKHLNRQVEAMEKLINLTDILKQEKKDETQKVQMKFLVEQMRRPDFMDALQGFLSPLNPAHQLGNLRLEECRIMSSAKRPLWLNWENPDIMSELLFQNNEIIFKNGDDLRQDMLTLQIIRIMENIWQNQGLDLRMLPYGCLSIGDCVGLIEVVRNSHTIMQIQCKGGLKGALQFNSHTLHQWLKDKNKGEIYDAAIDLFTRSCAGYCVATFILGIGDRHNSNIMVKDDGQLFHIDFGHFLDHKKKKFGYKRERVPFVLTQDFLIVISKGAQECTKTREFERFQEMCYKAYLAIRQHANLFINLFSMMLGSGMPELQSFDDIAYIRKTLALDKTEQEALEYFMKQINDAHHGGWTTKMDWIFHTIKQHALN
LIMK2, sequence (P53671 whole entry): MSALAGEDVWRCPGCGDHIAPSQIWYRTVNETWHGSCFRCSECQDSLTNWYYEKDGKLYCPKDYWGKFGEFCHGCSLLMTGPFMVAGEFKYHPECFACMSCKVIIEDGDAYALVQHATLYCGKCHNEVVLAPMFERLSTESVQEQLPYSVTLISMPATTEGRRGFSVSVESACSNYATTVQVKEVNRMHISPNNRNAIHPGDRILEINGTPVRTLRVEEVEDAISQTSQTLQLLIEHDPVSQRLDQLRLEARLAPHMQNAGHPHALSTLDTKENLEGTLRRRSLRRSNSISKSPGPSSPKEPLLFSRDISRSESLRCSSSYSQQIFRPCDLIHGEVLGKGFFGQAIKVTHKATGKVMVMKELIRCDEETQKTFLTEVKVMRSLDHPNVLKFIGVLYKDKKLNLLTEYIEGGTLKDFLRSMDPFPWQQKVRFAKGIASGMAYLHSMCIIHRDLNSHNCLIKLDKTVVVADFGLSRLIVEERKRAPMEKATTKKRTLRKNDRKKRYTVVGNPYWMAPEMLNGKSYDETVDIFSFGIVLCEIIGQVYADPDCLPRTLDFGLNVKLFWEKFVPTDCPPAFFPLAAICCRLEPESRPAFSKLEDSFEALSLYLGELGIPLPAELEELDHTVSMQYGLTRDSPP
GAK, sequence (O14976 whole entry): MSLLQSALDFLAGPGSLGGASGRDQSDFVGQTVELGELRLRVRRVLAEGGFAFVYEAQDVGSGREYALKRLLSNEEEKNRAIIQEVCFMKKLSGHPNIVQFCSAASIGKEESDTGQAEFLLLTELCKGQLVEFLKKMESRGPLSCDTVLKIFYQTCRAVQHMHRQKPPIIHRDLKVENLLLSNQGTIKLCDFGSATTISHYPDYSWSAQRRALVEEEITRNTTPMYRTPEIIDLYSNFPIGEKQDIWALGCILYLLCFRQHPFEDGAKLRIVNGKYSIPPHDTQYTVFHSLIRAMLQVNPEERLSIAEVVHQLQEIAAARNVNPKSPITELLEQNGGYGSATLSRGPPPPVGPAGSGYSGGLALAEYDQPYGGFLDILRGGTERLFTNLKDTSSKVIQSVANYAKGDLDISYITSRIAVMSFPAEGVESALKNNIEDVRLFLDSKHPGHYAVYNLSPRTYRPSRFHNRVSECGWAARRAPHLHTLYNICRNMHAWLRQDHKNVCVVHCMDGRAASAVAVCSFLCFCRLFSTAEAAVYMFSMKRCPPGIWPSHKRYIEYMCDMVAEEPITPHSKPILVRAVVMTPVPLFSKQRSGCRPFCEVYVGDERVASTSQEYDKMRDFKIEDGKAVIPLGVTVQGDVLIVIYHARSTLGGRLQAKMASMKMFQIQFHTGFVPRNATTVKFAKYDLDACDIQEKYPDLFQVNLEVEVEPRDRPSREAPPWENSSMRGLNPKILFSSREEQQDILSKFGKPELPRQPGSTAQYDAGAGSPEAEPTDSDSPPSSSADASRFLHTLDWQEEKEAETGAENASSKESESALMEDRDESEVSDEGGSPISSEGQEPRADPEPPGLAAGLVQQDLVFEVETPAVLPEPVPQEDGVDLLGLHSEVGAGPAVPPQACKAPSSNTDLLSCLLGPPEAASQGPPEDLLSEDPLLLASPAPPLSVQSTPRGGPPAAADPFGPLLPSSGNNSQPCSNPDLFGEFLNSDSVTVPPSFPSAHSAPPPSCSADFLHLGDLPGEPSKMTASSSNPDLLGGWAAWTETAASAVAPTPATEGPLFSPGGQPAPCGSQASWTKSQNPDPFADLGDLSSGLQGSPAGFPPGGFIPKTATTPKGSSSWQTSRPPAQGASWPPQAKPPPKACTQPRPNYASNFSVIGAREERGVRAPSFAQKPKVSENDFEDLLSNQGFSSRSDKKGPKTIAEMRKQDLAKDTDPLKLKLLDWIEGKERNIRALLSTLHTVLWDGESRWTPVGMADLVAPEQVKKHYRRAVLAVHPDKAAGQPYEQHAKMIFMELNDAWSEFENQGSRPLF
MYLK4, sequence (Q86YV6 whole entry): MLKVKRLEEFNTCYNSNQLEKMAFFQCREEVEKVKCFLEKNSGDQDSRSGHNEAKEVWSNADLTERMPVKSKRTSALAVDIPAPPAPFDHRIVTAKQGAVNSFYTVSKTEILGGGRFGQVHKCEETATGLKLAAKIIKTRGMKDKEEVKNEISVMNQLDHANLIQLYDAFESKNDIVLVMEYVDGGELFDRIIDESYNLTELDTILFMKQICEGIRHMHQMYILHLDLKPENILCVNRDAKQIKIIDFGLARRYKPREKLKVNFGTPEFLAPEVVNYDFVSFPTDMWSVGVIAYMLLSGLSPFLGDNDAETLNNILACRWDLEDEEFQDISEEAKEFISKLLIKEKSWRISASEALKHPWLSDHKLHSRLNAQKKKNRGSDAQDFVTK
T2 sequence (O14920 whole entry): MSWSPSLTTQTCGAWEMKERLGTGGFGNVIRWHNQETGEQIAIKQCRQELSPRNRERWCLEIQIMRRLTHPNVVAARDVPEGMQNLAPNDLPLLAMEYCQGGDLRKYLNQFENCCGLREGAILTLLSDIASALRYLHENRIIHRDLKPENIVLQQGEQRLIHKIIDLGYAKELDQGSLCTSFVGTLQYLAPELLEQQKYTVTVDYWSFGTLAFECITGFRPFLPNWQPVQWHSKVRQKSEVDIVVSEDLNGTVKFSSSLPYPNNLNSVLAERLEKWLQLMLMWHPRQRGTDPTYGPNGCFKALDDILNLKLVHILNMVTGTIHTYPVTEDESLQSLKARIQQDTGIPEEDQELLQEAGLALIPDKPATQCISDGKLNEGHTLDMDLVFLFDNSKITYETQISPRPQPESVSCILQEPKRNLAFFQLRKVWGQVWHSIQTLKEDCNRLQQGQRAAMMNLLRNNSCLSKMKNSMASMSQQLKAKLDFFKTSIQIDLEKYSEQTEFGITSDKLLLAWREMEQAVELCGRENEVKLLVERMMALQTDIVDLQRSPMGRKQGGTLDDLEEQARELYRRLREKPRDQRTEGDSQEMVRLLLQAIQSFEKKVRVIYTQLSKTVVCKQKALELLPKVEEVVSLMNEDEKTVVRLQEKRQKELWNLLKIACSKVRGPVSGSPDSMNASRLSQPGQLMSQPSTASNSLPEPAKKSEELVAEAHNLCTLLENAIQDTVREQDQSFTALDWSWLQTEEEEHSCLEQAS
FER, sequence (P16591 whole entry): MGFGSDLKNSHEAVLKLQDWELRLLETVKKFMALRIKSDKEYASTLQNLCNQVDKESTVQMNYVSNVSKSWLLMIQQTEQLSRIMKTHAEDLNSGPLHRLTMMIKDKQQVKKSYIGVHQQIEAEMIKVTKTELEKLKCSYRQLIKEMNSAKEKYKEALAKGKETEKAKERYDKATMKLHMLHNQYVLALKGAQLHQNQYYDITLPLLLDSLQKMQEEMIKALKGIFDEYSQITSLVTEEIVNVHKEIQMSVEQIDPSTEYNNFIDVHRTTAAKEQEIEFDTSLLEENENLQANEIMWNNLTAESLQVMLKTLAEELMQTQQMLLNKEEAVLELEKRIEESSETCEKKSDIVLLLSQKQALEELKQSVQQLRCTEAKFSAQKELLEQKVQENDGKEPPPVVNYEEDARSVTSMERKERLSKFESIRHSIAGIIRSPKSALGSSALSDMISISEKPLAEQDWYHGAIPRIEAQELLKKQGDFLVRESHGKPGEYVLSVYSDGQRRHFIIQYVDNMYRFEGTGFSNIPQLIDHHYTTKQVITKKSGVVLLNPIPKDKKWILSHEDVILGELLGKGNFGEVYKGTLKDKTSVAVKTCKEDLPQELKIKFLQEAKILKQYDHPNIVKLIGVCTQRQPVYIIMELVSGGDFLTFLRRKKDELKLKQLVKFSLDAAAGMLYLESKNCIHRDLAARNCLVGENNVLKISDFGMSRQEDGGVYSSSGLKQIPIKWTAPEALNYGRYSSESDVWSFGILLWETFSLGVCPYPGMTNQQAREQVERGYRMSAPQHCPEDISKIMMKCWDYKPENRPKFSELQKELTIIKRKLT

`COc1cc2c(cn1)N(C)C(=O)[C@@H](NC(=O)c1nc3n(n1)[C@H](c1ccccc1)CC3)CC2` [GNE684, (S)-N-((S)-7-methoxy-1-methyl-2-oxo-2,3,4,5-tetrahydro-1H-pyrido[3,4-b]azepin-3-yl)-5-phenyl-6,7-dihydro-5H-pyrrolo[1,2-b][1,2,4]triazole-2-carboxamide] gave a remaining binding at 10 µM [1] of 69%, a remaining binding at 10 µM (CSNK1D) of 100% and a remaining binding at 10 µM (FER) of 90%. The remaining binding at 10 µM (GAK) was 92%, the remaining binding at 10 µM (HIPK1) was 82% and the remaining binding at 10 µM (IKK-beta) was 100%. For the same compound, the remaining binding at 10 µM [2] was 100%, the remaining binding at 10 µM (JNK3) was 98% and the remaining binding at 10 µM (LIMK2) was 32%. For the same compound, the remaining binding at 10 µM (MLK1) was 99%, the remaining binding at 10 µM (MYLK4) was 100% and the remaining binding at 10 µM (PFCDPK1(P.falciparum)) was 100%. It also gave a remaining binding at 10 µM (PIK3CA(M1043I)) of 99%, a remaining binding at 10 µM (PKAC-alpha) of 73% and a remaining binding at 10 µM (PLK1) of 79%. The remaining binding at 10 µM (PYK2) was 92%, the remaining binding at 10 µM [3] was 92% and the remaining binding at 10 µM (STK16) was 100%. It also gave a remaining binding at 10 µM (TEC) of 100%, a remaining binding at 10 µM (YANK2) of 84% and a remaining binding at 10 µM (p38-gamma) of 98%.
